EP0237929B1, “3,5-Disubstituted pyrocatechol derivatives” (F. HOFFMANN-LA ROCHE AG, priority 1986, dated 1987)

Legend:
[1] = Acute toxicity after a single oral administration to mice; conditions: mouse, in vivo, p.o., read-out: DL₅₀
[2] = biological target: T1, Catechol-O-Methyl-Transferase (COMT) (Rattus norvegicus, UniProt P22734); experiment: COMT inhibition in rat liver homogenates; format: biochemical, Ratten
T1 construct: Man inkubiert Rattenleber-Homogenate in Gegenwart eines geeigneten Substrates; from tissue; host or cells: rat liver homogenate
T1 sequence (P22734 1-264): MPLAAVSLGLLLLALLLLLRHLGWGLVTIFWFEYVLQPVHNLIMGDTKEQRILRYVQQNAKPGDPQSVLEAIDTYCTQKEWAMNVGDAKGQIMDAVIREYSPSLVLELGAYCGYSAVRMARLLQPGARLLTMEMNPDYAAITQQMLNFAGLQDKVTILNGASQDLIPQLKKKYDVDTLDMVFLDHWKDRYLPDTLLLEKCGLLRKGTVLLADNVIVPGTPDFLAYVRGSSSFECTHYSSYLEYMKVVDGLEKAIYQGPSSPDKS
Text: Diese Wirkung kann wie folgt quantitativ erfasst werden: Man inkubiert Rattenleber-Homogenate in Gegenwart eines geeigneten Substrates wie in J. Neurochem. […] In einer zweiten Versuchsreihe wird die Inkubation in Gegenwart einer Verbindung der Formel Ia durchgeführt. Aus der Differenz der ermittelten COMT-Aktivitäten lässt sich dann die IC₅₀ berechnen. Die IC₅₀ wird in nMol/l angegeben und ist diejenige Konzentration in der Inkubationsmischung, welche notwendig ist, um die COMT-Aktivität um 50% herabzusetzen.

Compound | LD50 [1] [mg/kg] | IC50 [2] [µM]
O=C(c1cc(O)c(O)c([N+](=O)[O-])c1)c1ccccc1F [2'-Fluor-3,4-dihydroxy-5-nitrobenzophenon] | 312 to 625 | 0.042
CCCCOC(=O)c1cc(O)c(O)c([N+](=O)[O-])c1 [3,4-Dihydroxy-5-nitrobenzoesäure-n-butylester] | 312 to 625 | 0.02
O=C(c1ccccc1)c1cc(O)c(O)c([N+](=O)[O-])c1 [3,4-Dihydroxy-5-nitrobenzophenon] | 500 to 1000 | 0.048
O=C(c1cc(O)c(O)c([N+](=O)[O-])c1)c1ccccn1 [3,4-Dihydroxy-5-nitrophenyl-2-pyridylketon] | 1250 to 2500 | 0.0534
O=C(c1cccnc1)c1cc(O)c(O)c([N+](=O)[O-])c1 [3,4-Dihydroxy-5-nitrophenyl-3-pyridylketon] | 1000 to 2000 | 0.047
O=C(c1ccncc1)c1cc(O)c(O)c([N+](=O)[O-])c1 [3,4-Dihydroxy-5-nitrophenyl-4-pyridylketon] | 1000 to 2000 | 0.067
CCOC(=O)C(=O)c1cc(O)c(O)c([N+](=O)[O-])c1 [3,4-Dihydroxy-5-nitrophenylglyoxylsäureäthylester] | 1250 to 2500 | 0.0481
CCCCOC(=O)C=Cc1cc(O)c(O)c([N+](=O)[O-])c1 [3,4-Dihydroxy-5-nitrozimtsäure-n-butylester] | 2500 to 5000 | 0.0259
O=[N+]([O-])c1cc(O)c(O)c([N+](=O)[O-])c1 [3,5-Dinitropyrocatechol] | 500 to 1000 | –
